These results are taken from ChEMBL document CHEMBL1201862, “PubChem BioAssay data set” (2004).

Common to all, as to test: growth of human tumour cells (NCI), 48 h
The test system of test [1] is 786-0.
Test [2] deals with BT-549.
In test [3] the test system is CCRF-CEM.
Test [4] has as its system COLO 205.
Test [5] relates to DU-145.
In test [6] the test system is HOP-62.
The test system of test [7] is K562.
Test [8] deals with M14.
Test [9] concerns MDA-N.
The subject of test [10] is MOLT-4.
Test [11] deals with OVCAR-8.
Test [12] relates to PC-3.
For test [13], the system named is RXF 393.
Test [14] concerns SF-295.
Test [15] has as its system SK-MEL-2.
The test system of test [16] is SK-MEL-5.
The subject of test [17] is SNB-75.
Test [18] has as its system SW-620.
In test [19] the test system is UO-31.

Each structure is given as a SMILES string.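 The compound was tested at five concentrations on cells cultured in 96-well plates, with a 48-hour exposure period. The concentration for 50% growth inhibition is given as GI50.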 Activity calls are given as the source filed them. Cut-off read from the data, not from the text of the source: active = GI50 up to about 1.1 µM and inactive = higher.

Take `O=C1/C(=C\c2cccc(Oc3ccccc3)c2)S(=O)(=O)C(c2ccccc2)N1c1ccc(Cl)cc1` (stereo not given): the GI50 in test [1] was 14 µM (inactive); in [2], 22.6 µM (inactive); in [3], 12.3 µM (inactive); in test [4], 14.3 µM (inactive); in test [5] it was 19.1 µM (inactive); in test [6], 27.8 µM (inactive). Also, the GI50 in test [7] was 10.6 µM (inactive); in test [8] it was 14 µM (inactive); in [9], 14.6 µM (inactive); in test [10], 4.59 µM (inactive); in test [11], 16.9 µM (inactive); in test [12], 17.1 µM (inactive). For the same molecule, the GI50 in test [13] is 14.7 µM (inactive); in test [14], 5.28 µM (inactive); in test [15], 8.36 µM (inactive); in test [16], 13.6 µM (inactive); in [17], 30.4 µM (inactive); in [18], 16.7 µM (inactive). For the same molecule, the GI50 in test [19] was 13.7 µM (inactive).

For `C=C(C)C(=O)O[C@@H]1C/C(C)=C\[C@H](OC(C)=O)C[C@](C)(O)/C=C2/OC(=O)C(COC(C)=O)=C21`, the GI50 in test [1] was 1.09 µM (active); in [2] it was 1.37 µM (inactive); in [3], 0.0649 µM (active); in [4] it was 0.238 µM (active); in [5], 2.37 µM (inactive); in [6] it was 5.66 µM (inactive). For the same molecule, the GI50 in test [7] was 0.122 µM (active); in test [8], 0.673 µM (active); in test [9], 0.467 µM (active); in test [10], 0.428 µM (active); in test [11], 0.69 µM (active); in test [12], 1.61 µM (inactive). The GI50 in test [13] was 0.304 µM (active); in [14] it was 6.76 µM (inactive); in test [15], 2.87 µM (inactive); in test [16], 1.09 µM (active); in test [17], 3.93 µM (inactive); in test [18], 0.216 µM (active). The GI50 in test [19] was 1.63 µM (inactive).

In the case of `Cc1ccc([N+](=O)[O-])cc1S(=O)(=O)Nc1ccc(C2=NOC(c3ccco3)C2)cc1` (stereo not given), the GI50 in [1] is 18.2 µM (inactive); in [2], 18 µM (inactive); in [3], 18 µM (inactive); in [4] it was 20.1 µM (inactive); in test [5], 20.2 µM (inactive); in test [6], 12.6 µM (inactive). The GI50 in [7] is 4.7 µM (inactive); in [8], 15.3 µM (inactive); in test [9], 6.44 µM (inactive); in test [10], 15.1 µM (inactive); in test [11], 39.2 µM (inactive); in [12], 15.7 µM (inactive). The GI50 in test [13] is 8.73 µM (inactive); in test [14], 14.1 µM (inactive); in test [15], 16 µM (inactive); in [16] it was 13.2 µM (inactive); in test [17], 18.7 µM (inactive); in test [18], 18.7 µM (inactive). The GI50 in test [19] was 16.9 µM (inactive).

In the case of `COC(=O)C1=C(C)N2[C@H](C(=O)O)CO[C@@]2(C)[C@H](C(=O)OC)[C@H]1c1cccc([N+](=O)[O-])c1`, the GI50 in test [1], in [2], in [3], in [4], in test [5] and in test [6] was > 100 µM (inactive) each time. The GI50 in [7], in test [8], in test [9], in [10], in [11] and in [12] was > 100 µM (inactive) in each case. Besides, the GI50 in [13], in test [14], in [15], in [16], in [17] and in test [18] was > 100 µM (inactive) in each case. Also, in test [19], the GI50 is > 100 µM (inactive).

On to `Cc1c(C(=O)NNc2ccccc2)n2c(S)nnc2c2ccccc12`, for which the GI50 was > 100 µM (inactive) in [1]; 97.3 µM (inactive) in [2]; > 100 µM (inactive) in test [3]; > 100 µM (inactive) in [4]; > 100 µM (inactive) in [5]; > 100 µM (inactive) in test [6]. The GI50 is > 100 µM (inactive) in [7]; > 100 µM (inactive) in test [8]; > 100 µM (inactive) in test [9]; 83.2 µM (inactive) in test [10]; > 100 µM (inactive) in [11]; > 100 µM (inactive) in test [12]. The GI50 in [13] is 82.2 µM (inactive); in [14] it was 54.6 µM (inactive); in [15] it was > 100 µM (inactive); in [16] it was > 100 µM (inactive); in [17], > 100 µM (inactive); in test [18], > 100 µM (inactive). Further, the GI50 in [19] is 73.1 µM (inactive).

`COC1/C=C/C(C)C(C(C)C(OC)C(C)CCC(=O)C(C)C(C/C=C/N(C)C=O)OC)OC(=O)/C=C/C=C(\C)CC(OC)C(OC)C2=CC(=O)O[C@@H](C(C)C(OC)CC(OC)/C=C/C(C)C(O)C1)[C@H]2O` (stereo not given in full): the GI50 is 0.147 µM (active) in [1]; 0.117 µM (active) in test [2]; 0.039 µM (active) in test [3]; 0.0721 µM (active) in test [4]; 0.373 µM (active) in [5]; 0.0705 µM (active) in test [6]. For the same molecule, the GI50 is 0.0379 µM (active) in [7]; 0.14 µM (active) in test [8]; 0.208 µM (active) in test [9]; 0.105 µM (active) in [10]; 0.22 µM (active) in [11]; 0.0855 µM (active) in test [12]. The GI50 in [13] was 0.121 µM (active); in test [14] it was 0.115 µM (active); in test [15], 0.0276 µM (active); in test [16], 0.0904 µM (active); in test [17], 0.0268 µM (active); in [18], 0.12 µM (active). For the same molecule, in test [19], the GI50 was 0.137 µM (active).

`Cc1cc(-c2nc3cc(F)c(F)cc3s2)ccc1N`: the GI50 in [1] was > 65.2 µM (inactive); in [2], > 100 µM (inactive); in [3], > 35.6 µM (inactive); in test [4], 23.7 µM (inactive); in [5], > 67.6 µM (inactive); in test [6] it was 39.7 µM (inactive). The GI50 in test [7] was > 42.5 µM (inactive); in test [8], > 55.2 µM (inactive); in [9], > 56.6 µM (inactive); in test [10], > 49.9 µM (inactive); in [11] it was > 45.4 µM (inactive); in test [12], > 52.5 µM (inactive). Also, the GI50 in test [13] was 58.3 µM (inactive); in test [14], > 48.2 µM (inactive); in [15], > 58.5 µM (inactive); in [16], 64 µM (inactive); in [17] it was 51.9 µM (inactive); in [18], > 60.5 µM (inactive). Further, in test [19], the GI50 was > 59.4 µM (inactive).

As to `CC(C)=CCC[C@@H](C)C1=C(O)C(=O)C(C)=C(Nc2ccccc2F)C1=O`, the GI50 in test [1] was 21.3 µM (inactive); in [2], 17.5 µM (inactive); in test [3] it was 2.39 µM (inactive); in [4], 23.4 µM (inactive); in test [5], 23.9 µM (inactive); in test [6], 11.6 µM (inactive). Moreover, the GI50 in test [7] is 9.62 µM (inactive); in test [8], 16.7 µM (inactive); in [9], 23.1 µM (inactive); in [10], 5.68 µM (inactive); in test [11], 7.19 µM (inactive); in test [12], 12.3 µM (inactive). Besides, the GI50 in test [13] is 12.7 µM (inactive); in test [14] it was 3.82 µM (inactive); in test [15] it was 18.7 µM (inactive); in test [16] it was 12.5 µM (inactive); in test [17] it was 22.1 µM (inactive); in test [18] it was 23.8 µM (inactive). For the same molecule, the GI50 in [19] was 12.9 µM (inactive).

As for `Nc1ccccc1CCCC(=O)O`, the GI50 in test [1], in test [2], in [3], in test [4], in test [5] and in test [6] was > 100 µM (inactive) each time. In addition, the GI50 in [7], in test [8], in [9], in test [10], in [11] and in test [12] was > 100 µM (inactive) in each case. In addition, the GI50 in [13], in test [14], in [15], in [16], in test [17] and in test [18] was > 100 µM (inactive) each time. The GI50 in test [19] is > 100 µM (inactive).

For `O=C(N/C=C1\C(=O)Oc2ccccc2C1=O)Oc1ccccc1`, the GI50 was 23.7 µM (inactive) in test [1]; 18.7 µM (inactive) in [2]; 25 µM (inactive) in test [3]; 41.4 µM (inactive) in test [4]; 20 µM (inactive) in test [5]; 17.6 µM (inactive) in test [6]. Also, the GI50 is 55.3 µM (inactive) in test [7]; 19.2 µM (inactive) in [8]; 18.1 µM (inactive) in test [9]; 24.9 µM (inactive) in [10]; 25.8 µM (inactive) in test [11]; 29.5 µM (inactive) in test [12]. For the same molecule, the GI50 in test [13] was 8.59 µM (inactive); in [14], 30.5 µM (inactive); in test [15], 14.5 µM (inactive); in test [16], 32.7 µM (inactive); in test [17] it was 14.3 µM (inactive); in [18], 30.8 µM (inactive). Further, the GI50 in [19] is 16.4 µM (inactive).
